# Source: patent publication US12514843B2, “Biofilm disruption” (QBIOTICS PTY LTD, priority 2019, dated 2026)
# Experiments:
# [1] = test system: human adult epidermal keratinocytes (HEKa); assay: Microarray gene expression in keratinocytes in vitro; assay type: cell-based; conditions: 170 nM
# Method: (§1) In addition to disrupting the structure of biofilms comprising Gram-negative bacteria, effects of epoxytiglienones on regulation of genes involved in host response to bacterial infection were investigated in microarray studies with human adult epidermal keratinocytes (HEKa) and human adult dermal fibroblasts (HDF) in vitro.
# (§2) For these studies, HEKa were cultured in EpiLife® Medium supplemented with Supplement S7 (both from Life Technologies, Carlsbad, CA, USA), while HDF were cultured in Medium 106 supplemented with LSGS (Low Serum Growth Supplement) (both from Life Technologies). Cells where then treated with vehicle or 170 nM Compound 4 for 0, 0.5, 1, 2, 4, 8, 24, 48 and 72 hours. RNA was extracted using a Qiagen RNeasy mini kit and biotinylated using an Illumina TotalPrep RNA Amplification Kit (Ambion, Austin, TX, USA). Labelled RNA was hybridised to HumanHT-12 v4 BeadChip Arrays (Illumina Inc, San Diego, CA, USA) and scanned according to standard Illumina protocols. Data were extracted in GenomeStudio (Illumina) using default analysis settings and no normalisation method. Resulting data were imported into GeneSpring GX (Agilent, Santa Clara, CA, USA. Expression values were normalised using quantile normalisation with default settings.
# E. coli IR57 biofilm = assay: Disruption of established in vitro biofilm, CLSM with COMSTAT image analysis; assay type: cell-based, Escherichia coli; conditions: E. coli IR57 24 h biofilm, 256 μg/mL, further 24 h; vs untreated and ethanol blank controls
# Method: The effects of administration of Compounds 1, 4 and 6 and comparator compound CC-1 on disruption of established in vitro biofilms of Escherichia coli (E. coli) was investigated using methods described in Powell et al. (2018).
# Biofilms of E. coli IR57 were grown on 96-well glass-bottomed plates in Mueller-Hinton (MH) broth for 24 h, before 50% of the supernatant was replaced with fresh MH broth with or without the epoxytiglienone compound added to a final concentration of 256 μg/mL (vehicle is ethanol). An ethanol equivalent blank was used as a further control treatment. The plates were then incubated for a further 24 h at 37° C.
# Confocal laser scanning microscopy (CLSM) was then used to image the biofilms, following staining with Live/Dead® Baclight stain with phosphate buffered saline (PBS) added to each well before imaging with z-stack CLSM. The resultant images were analysed by COMSTAT software to produce measurements of (i) biofilm biomass volume or bio-volume (μm^3/μm^2) and (ii) DEAD/LIVE bacterial ratio.
# Streptococcus pyogenes = assay: Minimum inhibitory concentration (MIC) assay, planktonic culture, broth dilution; assay type: cell-based; parameters: key: C = confluent growth, i.e. no MIC could be determined at any concentration tested; conditions: S. pyogenes, planktonic culture in Mueller-Hinton broth; mean of three replicate tests
# Method: (§3) The effects of five epoxytiglienones (Compounds 1, 2, 3, 4 and 6) and two comparator comparator compounds (epoxytiglienones having longer carbon chains at the C12 position) on six human pathogenic bacteria (two Gram-positive and four Gram-negative species) were measured in conventional planktonic culture systems. A minimum inhibitory concentrations (MIC) assay (the standard assay employed to define and quantify antibiotic activity) was performed to determine antibacterial activity for each epoxytiglienone against each bacterial strain.
# (§4) The Gram-positive bacteria used in this study were methicillin resistant Staphylococcus aureus (MRSA) 1004A and Streptococcus pyogenes. The Gram-negative bacteria used in this study were Pseudomonas aeruginosa PAO1, Escherichia coli IR57 (V7), Klebsiella pneumoniae, and Acinetobacter baumannii 7789 (V19). MIC assays were performed on planktonic cultures of each bacteria grown in Mueller-Hinton broth using the standard broth dilution method described by Jorgensen et al. (1999) using epoxytiglienones dissolved in ethanol.
# [2] = test system: Escherichia coli IR57 (V7); assay: as above; assay type: cell-based; parameters: key: C = confluent growth, i.e. no MIC could be determined at any concentration tested; conditions: E. coli, planktonic culture in Mueller-Hinton broth; mean of three replicate tests
# Method: as §3, §4
# [3] = test system: Pseudomonas aeruginosa PAO1; assay: as above; assay type: cell-based; parameters: key: C = confluent growth, i.e. no MIC could be determined at any concentration tested; conditions: P. aeruginosa, planktonic culture in Mueller-Hinton broth; mean of three replicate tests
# Method: as §3, §4
# [4] = test system: Acinetobacter baumannii 7789 (V19); assay: as above; assay type: cell-based; parameters: key: C = confluent growth, i.e. no MIC could be determined at any concentration tested; conditions: A. baumannii, planktonic culture in Mueller-Hinton broth; mean of three replicate tests
# Method: as §3, §4
# [5] = test system: methicillin resistant Staphylococcus aureus (MRSA) 1004A; assay: as above; assay type: cell-based; parameters: key: C = confluent growth, i.e. no MIC could be determined at any concentration tested; conditions: S. aureus, planktonic culture in Mueller-Hinton broth; mean of three replicate tests
# Method: as §3, §4
# Klebsiella pneumoniae = assay: as above; assay type: cell-based; parameters: key: C = confluent growth, i.e. no MIC could be determined at any concentration tested; conditions: K. pneumoniae, planktonic culture in Mueller-Hinton broth; mean of three replicate tests
# Method: as §3, §4
# [6] = test system: isolated human neutrophils; assay: NETosis/necrosis assay, Hoescht/Sytox Green fluorescence; assay type: cell-based
# Method: For these assays, neutrophils were isolated from fresh blood of a healthy human donor by lysis of a red blood cell pellet that had been obtained by Ficoll-Paque sedimentation. The neutrophils (˜4×10^6 cells/mL) were incubated with 10 μg/mL dihydroethidium (DHE) (Sigma-Aldrich) in complete culture medium at 37° C. for 15 min alongside an aliquot of unstained cells to be tested as unstained control.
# NETosis/necrosis assays followed methods fully described by Brinkmann et al. 2010. Isolated neutrophils were plated into 96-well plates (RPMI1640, 10% FCS) and incubated with a 1:50,000 dilution of Hoescht (10 mg/mL) and Sytox® Green (5 mM). Compound 4 was added at six concentrations (0.005, 0.05, 0.5. 5, 50, 500 μM) and the cells incubated at 37° C., 5% CO2. Vehicle treated controls were included in all assays and there were three replicates of each assay. Hoescht/Sytox® Green fluorescence images were recorded for each well at 3 and 6 hours.
# [7] = test system: human adult dermal fibroblasts (HDF); assay: Microarray gene expression in fibroblasts in vitro; assay type: cell-based; conditions: 170 nM, within 2 to 4 hours
# Method: as §1, §2
structure (smiles),measurement,setting,value
"CCCCCC(=O)OC1C(C)C2(O)C(C3OC3(CO)C(O)C3(O)C(=O)C(C)=CC32)C2C(C)(C)C12OC(=O)CCCCC (stereo not drawn) [Compound 4, 12,13-dihexanoyl-6,7-epoxy-4,5,9,12,13,20-hexahydroxy-1-tiglien-3-one]","production of host defence peptides (DEFB2, DEFB3, DEFB4, RNASE7)",[1]; from 8 to 72 hours post treatment,significantly upregulated
same,"expression of chemokines/cytokines involved in PMNL recruitment (IL8, CXCL1)",[1]; within 2 to 4 hours,significant upregulation
same,biofilm bio-volume (COMSTAT),E. coli IR57 biofilm,Decreases in bio-volume were evident
same,distribution and density of bacteria in the biofilm (CLSM),E. coli IR57 biofilm,significant changes
same,Minimum inhibitory concentrations,Streptococcus pyogenes,256 µg/mL
same,Minimum inhibitory concentrations,[2],C
same,Minimum inhibitory concentrations,[3],C
same,Minimum inhibitory concentrations,[4],C
same,Minimum inhibitory concentrations,[5],512 µg/mL
same,Minimum inhibitory concentrations,Klebsiella pneumoniae,C
same,chromatin appearance in neutrophils (more diffuse),[6]; 50 μM,NETosis has occurred
same,chromatin appearance in neutrophils (condensed),[6]; 500 μM,necrosis has occurred
same,NETosis and necrosis of neutrophils,"[6]; 3 hours after treatment, 50 μM and 500 μM",initially observed
same,NETosis and necrosis of neutrophils,"[6]; 6 hours, four lower concentrations 0.005 μM-5 μM",evident
same,"expression of chemokines/cytokines involved in PMNL recruitment (IL8, CXCL1)",[7],significant upregulation
